Assay results taken from US20260008793A1, “IONIZABLE CATIONIC LIPIDS INCORPORATING SILICON” (ALDEXCHEM KFT., priority 2022, published 2026).

Experiments:
[1] = Encapsulation efficiency, RiboGreen RNA assay (Method A); format: physicochemical; settings: LNP formulated by Method A
Method in brief: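 mRNA-LNPs (Method A formulation) diluted in TE buffer pH 7.4/7.5 and measured in duplicate with and without Triton lysis (37° C., 10 min). RiboGreen fluorescence read at ex 480/em 525. mRNA quantified against a standard curve.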

HeLa cells = test: Transfection efficiency with Luciferase-mRNA, Nano-Glo assay (Method A); format: cell-based; settings: 100 ng Luciferase (SecNLuc) mRNA, 24 h, luminescence; note: unit not given here
Method in brief: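 Luminescence of secreted NanoLuc in culture medium, read ~3 min after Nano-Glo reagent, reports transfection. HeLa cells grown to ~80% confluence got 100/50/10 ng mRNA per well as LNPs for 24 h, with a parallel resazurin toxicity readout.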

Structure (SMILES): CCCCCCCCOC(CCCCCN(CCO)CCCCCCCC(=O)OC(CCCCCCCC)CCCCCCCC)O[Si](C)(C)O[Si](C)(C)OCCCCCCCC (stereo not drawn) [Example 192, heptadecan-9-yl 8-((2-hydroxyethyl)(6-(octyloxy)-6-((1,1,3,3-tetramethyl-3-(octyloxy)disiloxaneyl)oxy)hexyl)amino)octanoate]
- EE (%) [1]: 97%
- Transfection* (Method A = 100 ng mRNA) (HeLa cells): 11507

Structure (SMILES): CC/C=C\C/C=C\C/C=C\C/C=C\C/C=C\CCCCN(CCCCO)CCCCCC(OCCCCCCCC)O[Si](C)(C)CCCCCCCC (stereo not drawn) [Example 194, 4-((6-((dimethyl(octyl)silyl)oxy)-6-(octyloxy)hexyl)((5Z,8Z,11Z,14Z,17Z)-icosa-5,8,11,14,17-pentaen-1-yl)amino)butan-1-ol]
- EE (%) [1]: 96%
- Transfection* (Method A = 100 ng mRNA) (HeLa cells): 152542

Structure (SMILES): CC/C=C\C/C=C\C/C=C\C/C=C\C/C=C\CCCCN(CCCCO)CCCCCCOC(CCCCCCC)O[Si](C)(C)CCCCCCCC (stereo not drawn) [Example 195, 13-heptyl-5-((5Z,8Z,11Z,14Z,17Z)-icosa-5,8,11,14,17-pentaen-1-yl)-15,15-dimethyl-12,14-dioxa-5-aza-15-silatricosan-1-ol]
- EE (%) [1]: 96%
- Transfection* (Method A = 100 ng mRNA) (HeLa cells): 180769

Structure (SMILES): CC/C=C\C/C=C\C/C=C\C/C=C\C/C=C\CCCCN(CCCCO)CCCCCCOC(CCCCCCC)O[Si](C)(C)OCCCCCCCC (stereo not drawn) [Example 197, 13-heptyl-5-((5Z,8Z,11Z,14Z,17Z)-icosa-5,8,11,14,17-pentaen-1-yl)-15,15-dimethyl-12,14,16-trioxa-5-aza-15-silatetracosan-1-ol]
- EE (%) [1]: 97%
- Transfection* (Method A = 100 ng mRNA) (HeLa cells): 497865

Structure (SMILES): CC/C=C\C/C=C\C/C=C\C/C=C\C/C=C\CCCCN(CCCCO)CCCCCC(OCCCCCCCC)O[Si](C)(C)O[Si](C)(C)CCCCCCCC (stereo not drawn) [Example 198, 4-(((5Z,8Z,11Z,14Z,17Z)-icosa-5,8,11,14,17-pentaen-1-yl)(6-(octyloxy)-6-((1,1,3,3-tetramethyl-3-octyldisiloxaneyl)oxy)hexyl)amino)butan-1-ol]
- EE (%) [1]: 98%
- Transfection* (Method A = 100 ng mRNA) (HeLa cells): 53096

Structure (SMILES): CC/C=C\C/C=C\C/C=C\C/C=C\C/C=C\CCCCN(CCCCO)CCCCCCOC(CCCCCCC)O[Si](C)(C)O[Si](C)(C)CCCCCCCC (stereo not drawn) [Example 199, 13-heptyl-5-((5Z,8Z,11Z,14Z,17Z)-icosa-5,8,11,14,17-pentaen-1-yl)-15,15,17,17-tetramethyl-12,14,16-trioxa-5-aza-15,17-disilapentacosan-1-ol]
- EE (%) [1]: 97%
- Transfection* (Method A = 100 ng mRNA) (HeLa cells): 144984

Structure (SMILES): CC/C=C\C/C=C\C/C=C\C/C=C\C/C=C\CCCCN(CCCCO)CCCCCC(OCCCCCCCC)O[Si](C)(C)O[Si](C)(C)OCCCCCCCC (stereo not drawn) [Example 200, 4-(((5Z,8Z,11Z,14Z,17Z)-icosa-5,8,11,14,17-pentaen-1-yl)(6-(octyloxy)-6-((1,1,3,3-tetramethyl-3-(octyloxy)disiloxaneyl)oxy)hexyl)amino)butan-1-ol]
- EE (%) [1]: 97%
- Transfection* (Method A = 100 ng mRNA) (HeLa cells): 225921

Structure (SMILES): CC/C=C\C/C=C\C/C=C\C/C=C\C/C=C\CCCCN(CCCCO)CCCCCCOC(CCCCCCC)O[Si](C)(C)O[Si](C)(C)OCCCCCCCC (stereo not drawn) [Example 201, 13-heptyl-5-((5Z,8Z,11Z,14Z,17Z)-icosa-5,8,11,14,17-pentaen-1-yl)-15,15,17,17-tetramethyl-12,14,16,18-tetraoxa-5-aza-15,17-disilahexacosan-1-ol]
- EE (%) [1]: 95%
- Transfection* (Method A = 100 ng mRNA) (HeLa cells): 25071

Structure (SMILES): CC/C=C\C/C=C\C/C=C\C/C=C\C/C=C\CCCCN(CCCCO)CCCCCC(OCCCCCCCC)O[Si](C)(C)OCC(CCCCCC)CCCCCCCC (stereo not drawn) [Example 202, 16-hexyl-5-((5Z,8Z,11Z,14Z,17Z)-icosa-5,8,11,14,17-pentaen-1-yl)-13,13-dimethyl-11-(octyloxy)-12,14-dioxa-5-aza-13-silatetracosan-1-ol]
- EE (%) [1]: 96%
- Transfection* (Method A = 100 ng mRNA) (HeLa cells): 37442

Structure (SMILES): CC/C=C\C/C=C\C/C=C\C/C=C\C/C=C\CCCCN(CCCCO)CCCCCCOC(CCCCCCC)O[Si](C)(C)OCC(CCCCCC)CCCCCCCC (stereo not drawn) [Example 203, 13-heptyl-18-hexyl-5-((5Z,8Z,11Z,14Z,17Z)-icosa-5,8,11,14,17-pentaen-1-yl)-15,15-dimethyl-12,14,16-trioxa-5-aza-15-silahexacosan-1-ol]
- EE (%) [1]: 94%
- Transfection* (Method A = 100 ng mRNA) (HeLa cells): 161894

Structure (SMILES): CC/C=C\C/C=C\C/C=C\C/C=C\C/C=C\CCCCN(CCCCO)CCCCCC[Si](C)(C)OC(CCCCCCC)OCCCCCCCC (stereo not drawn) [Example 204, 14-heptyl-5-((5Z,8Z,11Z,14Z,17Z)-icosa-5,8,11,14,17-pentaen-1-yl)-12,12-dimethyl-13,15-dioxa-5-aza-12-silatricosan-1-ol]
- EE (%) [1]: 97%
- Transfection* (Method A = 100 ng mRNA) (HeLa cells): 282773

Structure (SMILES): CC/C=C\C/C=C\C/C=C\C/C=C\C/C=C\CCCCN(CCCCO)CCCCCCO[Si](C)(C)OC(CCCCCCC)OCCCCCCCC (stereo not drawn) [Example 205, 15-heptyl-5-((5Z,8Z,11Z,14Z,17Z)-icosa-5,8,11,14,17-pentaen-1-yl)-13,13-dimethyl-12,14,16-trioxa-5-aza-13-silatetracosan-1-ol]
- EE (%) [1]: 97%
- Transfection* (Method A = 100 ng mRNA) (HeLa cells): 95124

Structure (SMILES): CCCCCCCCOC(CCCCCN(CCCCO)CCC[C@@H](C)C1CCC2C3CCC4C[C@H](OC)CC[C@]4(C)C3CC[C@@]21C)O[Si](C)(C)CCCCCCCC (stereo partly drawn) [Example 214, 4-((6-((dimethyl(octyl)silyl)oxy)-6-(octyloxy)hexyl)((4R)-4-((3R,10S,13R)-3-methoxy-10,13-dimethylhexadecahydro-1H-cyclopenta[a]phenanthren-17-yl)pentyl)amino)butan-1-ol]
- EE (%) [1]: 97%
- Transfection* (Method A = 100 ng mRNA) (HeLa cells): 318542

Structure (SMILES): CCCCCCCC[Si](C)(C)OC(CCCCCCC)OCCCCCCN(CCCCO)CCC[C@@H](C)C1CCC2C3CCC4C[C@H](OC)CC[C@]4(C)C3CC[C@@]21C (stereo partly drawn) [Example 215, 13-heptyl-5-((4R)-4-((3R,10S,13R)-3-methoxy-10,13-dimethylhexadecahydro-1H-cyclopenta[a]phenanthren-17-yl)pentyl)-15,15-dimethyl-12,14-dioxa-5-aza-15-silatricosan-1-ol]
- EE (%) [1]: 94%
- Transfection* (Method A = 100 ng mRNA) (HeLa cells): 522805

Structure (SMILES): CCCCCCCCOC(CCCCCN(CCCCO)CCC[C@@H](C)C1CCC2C3CCC4C[C@H](OC)CC[C@]4(C)C3CC[C@@]21C)O[Si](C)(C)OCCCCCCCC (stereo partly drawn) [Example 216, 5-((4R)-4-((3R,10S,13R)-3-methoxy-10,13-dimethylhexadecahydro-1H-cyclopenta[a]phenanthren-17-yl)pentyl)-13,13-dimethyl-11-(octyloxy)-12,14-dioxa-5-aza-13-siladocosan-1-ol]
- EE (%) [1]: 91%
- Transfection* (Method A = 100 ng mRNA) (HeLa cells): 817325

Structure (SMILES): CCCCCCCCO[Si](C)(C)OC(CCCCCCC)OCCCCCCN(CCCCO)CCC[C@@H](C)C1CCC2C3CCC4C[C@H](OC)CC[C@]4(C)C3CC[C@@]21C (stereo partly drawn) [Example 217, 13-heptyl-5-((4R)-4-((3R,10S,13R)-3-methoxy-10,13-dimethylhexadecahydro-1H-cyclopenta[a]phenanthren-17-yl)pentyl)-15,15-dimethyl-12,14,16-trioxa-5-aza-15-silatetracosan-1-ol]
- EE (%) [1]: 96%
- Transfection* (Method A = 100 ng mRNA) (HeLa cells): 2231945

Structure (SMILES): CCCCCCCCOC(CCCCCN(CCCCO)CCC[C@@H](C)C1CCC2C3CCC4C[C@H](OC)CC[C@]4(C)C3CC[C@@]21C)O[Si](C)(C)O[Si](C)(C)CCCCCCCC (stereo partly drawn) [Example 218, 4-(((4R)-4-((3R,10S,13R)-3-methoxy-10,13-dimethylhexadecahydro-1H-cyclopenta[a]phenanthren-17-yl)pentyl)(6-(octyloxy)-6-((1,1,3,3-tetramethyl-3-octyldisiloxaneyl)oxy)hexyl)amino)butan-1-ol]
- EE (%) [1]: 97%
- Transfection* (Method A = 100 ng mRNA) (HeLa cells): 94651

Structure (SMILES): CCCCCCCC[Si](C)(C)O[Si](C)(C)OC(CCCCCCC)OCCCCCCN(CCCCO)CCC[C@@H](C)C1CCC2C3CCC4C[C@H](OC)CC[C@]4(C)C3CC[C@@]21C (stereo partly drawn) [Example 219, 13-heptyl-5-((4R)-4-((3R,10S,13R)-3-methoxy-10,13-dimethylhexadecahydro-1H-cyclopenta[a]phenanthren-17-yl)pentyl)-15,15,17,17-tetramethyl-12,14,16-trioxa-5-aza-15,17-disilapentacosan-1-ol]
- EE (%) [1]: 98%
- Transfection* (Method A = 100 ng mRNA) (HeLa cells): 531876

Structure (SMILES): CCCCCCCCOC(CCCCCN(CCCCO)CCC[C@@H](C)C1CCC2C3CCC4C[C@H](OC)CC[C@]4(C)C3CC[C@@]21C)O[Si](C)(C)O[Si](C)(C)OCCCCCCCC (stereo partly drawn) [Example 220, 4-(((4R)-4-((3R,10S,13R)-3-methoxy-10,13-dimethylhexadecahydro-1H-cyclopenta[a]phenanthren-17-yl)pentyl)(6-(octyloxy)-6-((1,1,3,3-tetramethyl-3-(octyloxy)disiloxaneyl)oxy)hexyl)amino)butan-1-ol]
- EE (%) [1]: 98%
- Transfection* (Method A = 100 ng mRNA) (HeLa cells): 367060

Structure (SMILES): CCCCCCCCO[Si](C)(C)O[Si](C)(C)OC(CCCCCCC)OCCCCCCN(CCCCO)CCC[C@@H](C)C1CCC2C3CCC4C[C@H](OC)CC[C@]4(C)C3CC[C@@]21C (stereo partly drawn) [Example 221, 13-heptyl-5-((4R)-4-((3R,10S,13R)-3-methoxy-10,13-dimethylhexadecahydro-1H-cyclopenta[a]phenanthren-17-yl)pentyl)-15,15,17,17-tetramethyl-12,14,16,18-tetraoxa-5-aza-15,17-disilahexacosan-1-ol]
- EE (%) [1]: 96%
- Transfection* (Method A = 100 ng mRNA) (HeLa cells): 73949

Structure (SMILES): CCCCCCCCOC(CCCCCN(CCCCO)CCC[C@@H](C)C1CCC2C3CCC4C[C@H](OC)CC[C@]4(C)C3CC[C@@]21C)O[Si](C)(C)OCC(CCCCCC)CCCCCCCC (stereo partly drawn) [Example 222, 16-hexyl-5-((4R)-4-((3R,10S,13R)-3-methoxy-10,13-dimethylhexadecahydro-1H-cyclopenta[a]phenanthren-17-yl)pentyl)-13,13-dimethyl-11-(octyloxy)-12,14-dioxa-5-aza-13-silatetracosan-1-ol]
- EE (%) [1]: 94%
- Transfection* (Method A = 100 ng mRNA) (HeLa cells): 1156093
